Reference: PMC9696068 (2022)

Tested on: AT11 on 2[G4]-(N3)127/(AT11)34/(Cy5)1 (aptadendrimer) (DNA, G4) TGGTGGTGGTTGTTGTGGTGGTGGTGGT
Test: steady-state and time-resolved fluorescence, fluorescence anisotropy
Details: K+ 65 mM KCl plus potassium phosphate; 20 mM phosphate pH 6.9, room temperature; 0.5 µM C8, aptadendrimer titrated; dendrimer core may contribute

binding: yes
SMILES: CN(C)c1ccc2cc3ccc(N(C)C)cc3[n+](CCCCCCCCNC(=O)c3ccc(I)cc3)c2c1
